Laboratory results from patent US20250344734A1, “UNSATURATED FATTY ACIDS AND THEIR USE TO MODIFY TASTE” (Firmenich Incorporated, priority 2022, published 2025).

Legend:
Assay type in all cases: cell-based
T2R10 (TAS2R10) = target: T1, T2R10 (TAS2R10) (Homo sapiens, UniProt Q9NYW0); experiment: FLIPR calcium assay, block of bitter agonist response, T2R10; conditions: unsaturated fatty acid concentration of 200 µM, cells stimulated with known bitter agonist, read-out: percentage block of cellular response over baseline, 10
T1 construct: expressed in transfected cells; host or cells: cells expressing a promiscuous G protein (e.g., G16g44)
T1 sequence (Q9NYW0 1-307): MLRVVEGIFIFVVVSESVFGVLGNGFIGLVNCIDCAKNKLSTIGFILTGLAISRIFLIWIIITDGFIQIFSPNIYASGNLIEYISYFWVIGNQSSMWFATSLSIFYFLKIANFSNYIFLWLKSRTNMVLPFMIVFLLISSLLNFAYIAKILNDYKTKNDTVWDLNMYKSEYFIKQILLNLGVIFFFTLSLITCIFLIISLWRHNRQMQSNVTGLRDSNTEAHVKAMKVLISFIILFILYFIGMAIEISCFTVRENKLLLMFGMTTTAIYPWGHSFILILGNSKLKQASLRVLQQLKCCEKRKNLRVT
Experimental: (§1) Cells expressing a promiscuous […] (e.g., G16g44) were transfected with vectors encoding 18 functional bitter receptor cDNAs, with one receptor per transfection. The cells were transfected directly in 384-well format high-density plates and incubated for 28 hours. Later, cells were loaded with the Ca-specific dye Fluo4-AM. After an incubation of 60 minutes, excess dye is washed off, and cells are stimulated with a known bitter agonist for each receptor and various unsaturated fatty acids. Changes in intracellular fluorescence are recorded using a FLIPR instrument. Bitter antagonists and corresponding receptors are identified based on percentage inhibition of agonist's activity on a given receptor.
(§2) The above protocol was carried out using 16 different unsaturated fatty acids. A particular T2R receptor was identified as being antagonized by a particular unsaturated fatty acid if it triggered a >25% block of agonist's cellular response at 200 μM concentration of unsaturated fatty acid. […] Table 2 indicates the sixteen (16) compounds tested by their compound number from Table 1 above. The 18 bitter taste receptors screened are the human bitter taste receptors we named. T2R01 (TAS2R01), T2R03 (TAS2R03), T2R04 (TAS2R04), T2R07 (TAS2R07), T2R08 (TAS2R08), T2R09 (TAS2R09), T2R10 (TAS2R10), T2R13 (TAS2R13), T2R14 (TAS2R14), T2R16 (TAS2R16), T2R54 (TAS2R39, T2R61 (TAS2R43), T2R63 (TA2R20), T2R64 (TAS2R31), T2R65 (TAS2R19), T2R67 (TAS2R50), T2R71 (TAS2R41), and T2R75 (TAS2R46). The corresponding IUPHAR nomenclature for each receptor is given in parenthesis. In Table 2, these receptors are identified by the last two digits. For example, T2R01 is indicated as 01. Table 2 reports the percentage block of cellular response over baseline at an unsaturated fatty acid concentration of 200 µM.

T2R07 (TAS2R07) = target: T2, T2R07 (TAS2R07) (Homo sapiens, UniProt Q9NYW3); experiment: FLIPR calcium assay, block of bitter agonist response, T2R07; conditions: unsaturated fatty acid concentration of 200 µM, cells stimulated with known bitter agonist
T2 construct: expressed in transfected cells; host or cells: cells expressing a promiscuous G protein (e.g., G16g44)
T2 sequence (Q9NYW3 1-318): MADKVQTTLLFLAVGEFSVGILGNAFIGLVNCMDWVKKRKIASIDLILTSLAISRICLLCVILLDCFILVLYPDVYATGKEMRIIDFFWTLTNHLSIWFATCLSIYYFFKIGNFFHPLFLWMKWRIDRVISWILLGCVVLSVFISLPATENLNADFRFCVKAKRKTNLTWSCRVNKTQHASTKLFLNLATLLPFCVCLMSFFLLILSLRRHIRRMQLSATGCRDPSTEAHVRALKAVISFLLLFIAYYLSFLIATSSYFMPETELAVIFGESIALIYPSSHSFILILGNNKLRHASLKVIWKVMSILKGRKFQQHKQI
Experimental: as §1
(§3) The above protocol was carried out using 16 different unsaturated fatty acids. A particular T2R receptor was identified as being antagonized by a particular unsaturated fatty acid if it triggered a >25% block of agonist's cellular response at 200 μM concentration of unsaturated fatty acid. […] Table 2 indicates the sixteen (16) compounds tested by their compound number from Table 1 above. The 18 bitter taste receptors screened are the human bitter taste receptors we named. […]

T2R03 (TAS2R03) = target: T3, T2R03 (TAS2R03) (Homo sapiens, UniProt Q9NYW6); experiment: FLIPR calcium assay, block of bitter agonist response, T2R03; conditions: unsaturated fatty acid concentration of 200 µM, cells stimulated with known bitter agonist
T3 construct: expressed in transfected cells; host or cells: cells expressing a promiscuous G protein (e.g., G16g44)
T3 sequence (Q9NYW6 1-316): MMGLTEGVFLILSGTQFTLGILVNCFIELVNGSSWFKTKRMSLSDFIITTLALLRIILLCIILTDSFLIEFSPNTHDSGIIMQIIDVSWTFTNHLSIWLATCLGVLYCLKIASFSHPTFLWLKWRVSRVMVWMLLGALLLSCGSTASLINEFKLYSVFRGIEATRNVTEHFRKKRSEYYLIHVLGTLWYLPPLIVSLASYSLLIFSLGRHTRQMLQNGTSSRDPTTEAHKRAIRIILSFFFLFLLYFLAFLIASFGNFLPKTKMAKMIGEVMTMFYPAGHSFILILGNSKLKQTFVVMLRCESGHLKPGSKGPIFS
Experimental: as §1, §3

T2R01 (TAS2R01) = target: T4, T2R01 (TAS2R01) (Homo sapiens, UniProt Q9NYW7); experiment: FLIPR calcium assay, block of bitter agonist response, T2R01; conditions: unsaturated fatty acid concentration of 200 µM, cells stimulated with known bitter agonist, read-out: percentage block of cellular response over baseline, 01
T4 construct: expressed in transfected cells; host or cells: cells expressing a promiscuous G protein (e.g., G16g44)
T4 sequence (Q9NYW7 1-299): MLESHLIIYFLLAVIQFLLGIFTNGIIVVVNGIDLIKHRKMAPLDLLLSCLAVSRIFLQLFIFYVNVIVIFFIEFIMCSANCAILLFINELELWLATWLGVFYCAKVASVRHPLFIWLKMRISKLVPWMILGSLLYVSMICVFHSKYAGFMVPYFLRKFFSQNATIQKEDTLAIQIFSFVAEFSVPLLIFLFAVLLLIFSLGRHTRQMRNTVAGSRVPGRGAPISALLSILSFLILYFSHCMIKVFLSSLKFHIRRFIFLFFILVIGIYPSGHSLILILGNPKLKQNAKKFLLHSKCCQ
Experimental: as §1, §2

T2R71 (TAS2R41) = target: T5, T2R71 (TAS2R41) (Homo sapiens, UniProt P59536); experiment: FLIPR calcium assay, block of bitter agonist response, T2R71; conditions: unsaturated fatty acid concentration of 200 µM, cells stimulated with known bitter agonist
T5 construct: expressed in transfected cells; host or cells: cells expressing a promiscuous G protein (e.g., G16g44)
T5 sequence (P59536 1-307): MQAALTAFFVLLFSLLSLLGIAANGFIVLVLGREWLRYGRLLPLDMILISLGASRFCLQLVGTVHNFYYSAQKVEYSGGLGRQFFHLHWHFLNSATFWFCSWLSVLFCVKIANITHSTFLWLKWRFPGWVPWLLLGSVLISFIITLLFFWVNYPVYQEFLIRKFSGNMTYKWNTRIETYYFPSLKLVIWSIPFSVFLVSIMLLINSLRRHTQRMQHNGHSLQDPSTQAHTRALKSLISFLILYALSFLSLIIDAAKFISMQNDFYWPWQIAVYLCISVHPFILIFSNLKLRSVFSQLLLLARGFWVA
Experimental: as §1, §3

With `CC(C)=CCC/C(C)=C/C(=O)O` [Compound 129] the inhibition at 200 µM (T2R10 (TAS2R10)) was > 65%, the “percentage block of cellular response over baseline, 07” value (T2R07 (TAS2R07)) was >90% and the “percentage block of cellular response over baseline, 03” value (T2R03 (TAS2R03)) was >45%. The inhibition at 200 µM (T2R01 (TAS2R01)) was 40% and the “percentage block of cellular response over baseline, 71” value (T2R71 (TAS2R41)) was 30%.
